Measured values as given in paper PMC6273168, “Synthesis and Biological Evaluation of Novel 4-Morpholino-7,8-dihydro-5H-thiopyrano[4,3-d]pyrimidine Derivatives Bearing Phenylpyridine/ Phenylpyrimidine-Carboxamides” (Molecules, 2016).

Experiments:
[1] = tested on: A549 (human lung cancer) cell line; test: MTT cell proliferation (cytotoxicity) assay, A549; format: cell-based; settings: Homo sapiens, A549, 72 h, average of two separate determinations
Protocol: (§1) Taking GDC-0941 as reference compound, the target compounds […], 12a–j, 13a–g and 14a–g ere evaluated for the cytotoxicity against the three cancer cell lines A549, PC-3 and MCF-7 usg 3-(4,5-dimethylthiazolyl-2)-2,5-diphenyltetrazolium bromide (MTT) cell proliferation assays. In addition, one selected compounds 12h was fher evaluated for PI3Kα kinase inhibitory activity. The results, expressed as IC50 values or inhibitory rate, are sumrized in Table 1, Table 2 and Table 3.
(§2) The in vitro cytotoxic activities of all the compounds 11a–11j, 12a–12j, 13a–13g and 14a–14g was evaluated with A549, PC-3 and MCF-7 cell lines by the standard MTT assay, with GDC-0941 as positive control. The cancer cell lines were cultured in minimum essential medium (MEM) supplement with 10% fetal bovine serum (FBS). Approximately 4 × 10^3 cells, suspended in MEM medium, were plated onto each well of a 96-well plate and incubated in 5% CO2 at 37 °C for 24 h. The test compounds at indicated final concentrations were added to the culture medium and the cell cultures were continued for 72 h. Fresh MTT was added to each well at a terminal concentration of […] and incubated with cells at 37 °C for 4 h. The formazan crystals were dissolved in 100 µL DMSO each well, and the absorbency at 492 nm (for absorbance of MTT formazan) and 630 nm (for the reference wavelength) was measured with an ELISA reader. All of the compounds were tested three times in each of the cell lines. The results expressed as inhibition rates or IC50 (half-maximal inhibitory concentration) were the averages of two determinations and calculated by using the Bacus Laboratories Inc. Slide Scanner (Bliss) software (the Bacus Laboratories Inc. Slide Scanner (BLISS) system, Lombard, IL, USA).

[2] = tested on: PC-3 (human prostatic cancer) cell line; test: MTT cell proliferation (cytotoxicity) assay, PC-3; format: cell-based; settings: Homo sapiens, 72 h, average of two separate determinations
Protocol: as §1, §2

[3] = tested on: MCF-7 (human breast cancer) cell line; test: MTT cell proliferation (cytotoxicity) assay, MCF-7; format: cell-based; settings: Homo sapiens, MCF7, 72 h, average of two separate determinations
Protocol: as §1, §2

PI3Kα = PI3Kα (Homo sapiens, UniProt P42336); test: PI3Kα Kinase-Glo Luminescent Kinase Assay; format: biochemical
Chain of PI3Kα (P42336 whole entry): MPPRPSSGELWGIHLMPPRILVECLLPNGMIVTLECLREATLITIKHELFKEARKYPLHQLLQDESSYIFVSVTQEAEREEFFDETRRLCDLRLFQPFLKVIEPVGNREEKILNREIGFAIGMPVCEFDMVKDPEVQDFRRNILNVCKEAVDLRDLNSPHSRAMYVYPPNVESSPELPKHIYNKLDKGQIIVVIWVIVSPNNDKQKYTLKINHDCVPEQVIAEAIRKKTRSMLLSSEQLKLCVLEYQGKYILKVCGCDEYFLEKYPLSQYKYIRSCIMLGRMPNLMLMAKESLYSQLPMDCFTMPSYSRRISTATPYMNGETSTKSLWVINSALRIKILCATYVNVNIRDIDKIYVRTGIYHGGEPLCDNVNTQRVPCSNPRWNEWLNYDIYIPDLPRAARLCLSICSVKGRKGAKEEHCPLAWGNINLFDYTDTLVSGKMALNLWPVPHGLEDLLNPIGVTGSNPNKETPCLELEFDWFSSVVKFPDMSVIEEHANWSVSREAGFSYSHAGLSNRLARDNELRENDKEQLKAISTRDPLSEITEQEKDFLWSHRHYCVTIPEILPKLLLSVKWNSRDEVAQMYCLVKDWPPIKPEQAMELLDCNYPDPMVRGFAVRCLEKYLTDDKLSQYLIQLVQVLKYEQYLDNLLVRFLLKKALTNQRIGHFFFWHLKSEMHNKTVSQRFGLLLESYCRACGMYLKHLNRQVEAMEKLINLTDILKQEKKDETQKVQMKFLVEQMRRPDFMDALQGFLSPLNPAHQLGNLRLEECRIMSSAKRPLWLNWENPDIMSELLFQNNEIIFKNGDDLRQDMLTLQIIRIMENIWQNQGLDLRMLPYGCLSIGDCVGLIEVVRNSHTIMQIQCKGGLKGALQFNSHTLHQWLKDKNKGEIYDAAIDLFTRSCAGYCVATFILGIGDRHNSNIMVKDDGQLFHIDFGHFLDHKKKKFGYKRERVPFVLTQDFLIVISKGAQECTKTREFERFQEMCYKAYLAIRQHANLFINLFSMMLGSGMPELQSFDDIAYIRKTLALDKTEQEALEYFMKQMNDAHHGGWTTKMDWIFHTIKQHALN
Chain of PI3Kα (P27986 whole entry partner): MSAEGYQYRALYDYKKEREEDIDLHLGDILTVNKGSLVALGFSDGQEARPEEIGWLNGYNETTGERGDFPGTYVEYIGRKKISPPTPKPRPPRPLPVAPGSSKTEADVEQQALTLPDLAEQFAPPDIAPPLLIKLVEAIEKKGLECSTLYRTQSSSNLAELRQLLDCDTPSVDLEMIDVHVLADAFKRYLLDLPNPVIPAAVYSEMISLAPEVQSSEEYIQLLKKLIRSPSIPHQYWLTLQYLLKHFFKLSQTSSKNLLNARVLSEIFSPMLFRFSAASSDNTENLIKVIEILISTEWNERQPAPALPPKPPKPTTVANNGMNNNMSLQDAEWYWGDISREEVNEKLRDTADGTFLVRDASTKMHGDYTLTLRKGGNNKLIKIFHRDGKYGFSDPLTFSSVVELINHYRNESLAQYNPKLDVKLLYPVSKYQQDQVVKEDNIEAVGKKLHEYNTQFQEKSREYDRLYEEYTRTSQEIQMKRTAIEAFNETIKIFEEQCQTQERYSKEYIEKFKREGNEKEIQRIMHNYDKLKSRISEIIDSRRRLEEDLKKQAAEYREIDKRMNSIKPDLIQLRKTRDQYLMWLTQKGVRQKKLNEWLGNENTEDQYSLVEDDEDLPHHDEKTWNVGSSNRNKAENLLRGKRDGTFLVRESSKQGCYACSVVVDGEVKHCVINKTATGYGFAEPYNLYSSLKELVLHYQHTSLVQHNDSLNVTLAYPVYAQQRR

CCc1ccc(-c2ccnc(C(=O)Nc3ccc(-c4nc5c(c(N6CCOCC6)n4)CS(=O)(=O)CC5)cc3)c2)cc1 [Compound 12h, N-(4-(4-Morpholino-7,8-dihydro-6,6-dioxide-5H-thiopyrano[4,3-d]pyrimidin-2-yl)phenyl)-4-(4-ethylphenyl) picolinamide]
IC50 ([1]; Table 1): 8.37 ± 0.1 µM
IC50 ([2]; Table 1): 11.34 ± 0.11 µM
IC50 ([3]; Table 1): 9.26 ± 0.82 µM
IC50 (PI3Kα; Kinase-Glo, 1 µM ATP, 60 min, average of two separate determinations): 7.39 ± 0.194 µM
inhibitory rate against PI3Ka kinase (PI3Kα; at 10 µM, in words): moderate
melting point: 276.8 to 279.1 °C

O=C(Nc1ccc(-c2nc3c(c(N4CCOCC4)n2)CSCC3)cc1)c1cc(-c2ccc(Cl)cc2)ncn1 [Compound 13f]
IC50 ([1]; Table 2): > 100 µM
IC50 ([2]; Table 2): > 100 µM
IC50 ([3]; Table 2): > 100 µM
melting point: 281.8 to 285 °C

COc1ccc(-c2cc(C(=O)Nc3ccc(-c4nc5c(c(N6CCOCC6)n4)CS(=O)(=O)CC5)cc3)ncn2)cc1 [Compound 14b]
IC50 ([1]; Table 2): > 100 µM
IC50 ([2]; Table 2): > 100 µM
IC50 ([3]; Table 2): 89.6 ± 0.91 µM
melting point: 277 to 279.5 °C

O=C(Nc1ccc(-c2nc3c(c(N4CCOCC4)n2)CS(=O)(=O)CC3)cc1)c1cc(-c2ccc(C(F)(F)F)cc2)ncn1 [Compound 14c]
IC50 ([1]; Table 2): > 100 µM
IC50 ([2]; Table 2): > 100 µM
IC50 ([3]; Table 2): > 100 µM
melting point: 287.1 to 289.2 °C

O=C(Nc1ccc(-c2nc3c(c(N4CCOCC4)n2)CS(=O)(=O)CC3)cc1)c1cc(-c2ccc(F)cc2)ncn1 [Compound 14d]
IC50 ([1]; Table 2): > 100 µM
IC50 ([2]; Table 2): > 100 µM
IC50 ([3]; Table 2): > 100 µM
melting point: > 300 °C

O=C(Nc1ccc(-c2nc3c(c(N4CCOCC4)n2)CS(=O)(=O)CC3)cc1)c1cc(-c2ccc(Br)cc2)ncn1 [Compound 14e]
IC50 ([1]; Table 2): > 100 µM
IC50 ([2]; Table 2): > 100 µM
IC50 ([3]; Table 2): 27.4 ± 1.27 µM
melting point: > 300 °C

O=C(Nc1ccc(-c2nc3c(c(N4CCOCC4)n2)CS(=O)(=O)CC3)cc1)c1cc(-c2ccc(Cl)cc2)ncn1 [Compound 14f]
IC50 ([1]; Table 2): > 100 µM
IC50 ([2]; Table 2): > 100 µM
IC50 ([3]; Table 2): > 100 µM
melting point: > 300 °C

O=C(Nc1ccc(-c2nc3c(c(N4CCOCC4)n2)CS(=O)(=O)CC3)cc1)c1cc(-c2ccccc2)ncn1 [Compound 14g]
IC50 ([1]; Table 2): > 100 µM
IC50 ([2]; Table 2): > 100 µM
IC50 ([3]; Table 2): > 100 µM
melting point: 294.2 to 296.6 °C
